Test results taken from patent publication US20230390287A1, “MODULATORS OF PD-L1/PD-1 INTERACTION AND USES THEREOF” (Ramot at Tel-Aviv University Ltd., priority 2021, published 2023).

How the values were obtained:
PD-1/PD-L1 interaction = PD-1/PD-L1 interaction (Homo sapiens (Human), UniProt Q9NZQ7); test: HTRF PD-1/PD-L1 binding assay; assay type: biochemical; parameters: key to HTF assay (100 μM): +: positive compounds using 100 μM on HTRF; settings: for HTF assay (100 μM): compounds at 100 μM, hits defined as at least 50% inhibition of PD-1/PD-L1 interaction; for dose-response effect in HTRF: 8 doses starting from 100 μM
[1] = Compound stability (no method given); assay type: physicochemical
recombinant human PD-L1 = recombinant human PD-L1 (Homo sapiens (Human), UniProt Q9NZQ7); test: Differential scanning fluorimetry (DSF) thermal denaturation; assay type: binding; settings: for thermal shift / stabilization of PD-L1: 100 μM compound, 1% DMSO
Procedure: DSF was performed in a C1000 Touch thermal cycler equipped with a CFX96 optical reaction module (Bio Rad). For all fluorescence measurements, samples contained recombinant human PD-L1 (ThermoFisher) at 500 μg/ml in phosphate buffered saline (PBS), pH 7.4, 5% (m/v) Mannitol, 5% (m/v) Trehalose, 0.02% (v/v) Tween® 80, 2.5-fold SYPRO® Orange, 1% (v/v) DMSO (Sigma-Aldrich) and 100 μM of each compound. The PCR plate was sealed with Optical-Quality Sealing Tape (Bio-Rad) and centrifuged at 300 g for 5 minutes. The DSF assay was carried out by increasing the temperature from 20 to 90° C., with a 1 second hold time every 0.2° C. and fluorescence acquisition using the FRET channel, after an initial incubation step of 10 minutes at 20° C. Control experiments in the absence of DMSO and/or compounds were routinely performed in each microplate.
Data were processed using CFX Manager Software V3.0 (Bio-Rad) and the GraphPad Prism 7. Temperature scan curves were fitted to a dose-response sigmoid function (Boltzmann equation) and the melting temperature (Tm values) were obtained from the midpoint of the transition. Normalization of the RFU was also performed to prevent distraction due to different maximum and minimum values upon compounds treatment. The RFU values from different data sets were converted to a common scale 0-1, where 0 represents the fluorescence of the native protein and 1 the fluorescence of the denatured protein. To monitor the binding properties towards each compound, DSF assays were run in the absence and presence of 100 μM compounds using 1% (v/v) DMSO as vehicle control.
To test this hypothesis, the melting temperature (Tm) of the PD-L1 was determined in thermal denaturation assays by differential scanning fluorimetry (DSF) and checked for a shift in the proteins' Tm (ΔTm) in the presence of the PD-L1 inhibitor candidates. The extent of temperature shift is proportional to the compounds' stabilizing effect and thereby used to infer inhibitors' affinity.

A375 cells = test: MTT cell viability, A375; assay type: cell-based, human; settings: 1, 10, 100 μM, 48 hours
Procedure: (§1) For the MTT assays, cells were seeded in 96-multi-well plate at a concentration of 7,000 cells per well. Six hours after seeding, cells were treated with the compounds and DMSO as a negative control. Forty-eight hours after the addition of the compounds, 20 μl of MTT (Sigma-Aldrich) dissolved in 5 mg/ml of PBS were added to each well and incubated for 2 hours at 37° C. Solutions were removed, and 100 μl of DMSO were added to each well and gently mixed on a shaker. The absorbance of control and treated wells was read against a DMSO blank at 570 nm using an Epoch micro-plate reader (Biotek). Each hit compound was tested in three replicates, in three independent experiments.
(§2) Human breast cancer MDA-MB-231 and melanoma A375 cells were exposed to increasing concentrations (1, 10, and 100 μM) of selected compounds for 48 hours. Cell viability was normalized to untreated cells. Three different concentrations 100 μM (blue), 10 μM (green) and 1 μM (gray) were tested. Data are presented as mean±SD, N=3, n=3 and N=1, n=3, from three or one independent experiment(s) performed in triplicate.

MDA-MB-231 cells = test: MTT cell viability, MDA-MB-231; assay type: cell-based, human; settings: 1, 10, 100 μM, 48 hours
Procedure: as §1, §2

[2] = test system: PD-1/PD-L1 interaction on MDA-MB-231 cells; test: Cell-based PD-1/PD-L1 inhibition (accessible PD-L1 by flow cytometry), MDA-MB-231; parameters: species or system human; settings: 10 μM, 72 hours
Procedure: (§3) PD-1/PD-L1 Inhibition on Human Melanoma and Breast Cancer Cell Lines:
(§4) Cells (0.1×10^6 cells) were tested for PD-1/PD-L1 inhibition by co-incubation of hit compounds, DMSO (background), BMS-202 (Selleckchem) and anti-human PD-L1 (BioxCell, Clone 29E.2A3) (positive controls) for 72 hours in 2 ml DMEM medium. Non-confluent cell cultures were scraped into single-cell suspension, washed with PBS, and counted. Cells were subsequently stained with PD-1 fluorescent proxy for 30 minutes at 4° C., washed twice and resuspended in FACS buffer. Cells were analyzed using BD LSRFortessa (BD Biosciences) and data analyzed with FlowJo software for Mac (FlowJo, LLC 2013-2016). Mean fluorescence intensity (MFI) was derived from each sample. The PD-1/PD-L1 inhibition in cells was measured by a decrease in MFI relative to background.
The selected cell lines were incubated with the selected compounds to assess compound-binding affinities, and consequently PD-1/PD-L1 inhibition. The levels of remaining accessible PD-L1 in these cells were evaluated by FACS analysis using a fluorescence PD-1 proxy. To understand compound activity, different incubation times (24, 48 and 72 hours) were evaluated on MDA-MB-231 breast cancer cell line.
(§5) The remaining accessible PD-L1 was determined by flow cytometry.

[3] = test system: PD-1/PD-L1 interaction on A375 cells; test: Cell-based PD-1/PD-L1 inhibition (accessible PD-L1 by flow cytometry), A375; parameters: species or system human; settings: A375 stimulated with IFN-γ; 10 μM; 72 hours
Procedure: as §3, §4, §5

[4] = HTRF dose-response starting from 100 μM
[5] = Table A, HTRF dose-response, NA = Not applicable (No dose-response effect)
[6] = Table B, HTRF dose-response, NA = no dose-response effect

Chain of PD-1/PD-L1 interaction (Q9NZQ7 19-238): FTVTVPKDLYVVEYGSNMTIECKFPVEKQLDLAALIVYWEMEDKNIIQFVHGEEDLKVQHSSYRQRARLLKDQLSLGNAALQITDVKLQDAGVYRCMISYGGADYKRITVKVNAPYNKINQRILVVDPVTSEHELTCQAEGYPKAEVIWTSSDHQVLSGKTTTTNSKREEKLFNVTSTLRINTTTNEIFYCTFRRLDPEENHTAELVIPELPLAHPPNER
Chain of recombinant human PD-L1 (Q9NZQ7 19-238): as above

IC50 (PD-1/PD-L1 interaction; [4]) [nM] | IC50 (PD-1/PD-L1 interaction; [5]) [nM] | IC50 (PD-1/PD-L1 interaction; [6]) [nM] | HTF assay (100 μM) (PD-1/PD-L1 interaction) | stability of compound [1] | dose-response effect in HTRF (PD-1/PD-L1 interaction) | interference with the fluorescence-dye in DSF (recombinant human PD-L1) | thermal shift / stabilization of PD-L1 (recombinant human PD-L1) | SMILES | toxicity (cell viability, MTT) (A375 cells) | toxicity (cell viability, MTT) (MDA-MB-231 cells) | impact on PD-L1 accessibility / PD-1/PD-L1 interaction [2] | impact on PD-L1 accessibility / PD-1/PD-L1 interaction [3]
 |  |  | + |  | no dose-response was observed |  |  | CN(C)CCNC(=O)N1CCCN(c2ncnc3cc(-c4ccccc4)sc23)CC1 [Compound 35] |  |  |  | 
149 | 149 | 149 | + |  |  | revealed to interfere |  | O=C(c1ccc(-c2ccccc2)cc1)c1nc(-c2ccc(-c3ccccc3)cc2)c[nH]1 [Compound 73] | toxicity higher or similar to that obtained for BMS202 | toxicity higher or similar to that obtained for BMS202 |  | 
 |  |  | + |  | no dose-response was observed |  |  | O=C(NC1CC1)c1ccc(N2CCC(Cc3ccccc3)CC2)nc1 [Compound 38] |  |  |  | 
380 | 380 | 380 | + |  |  | revealed to interfere |  | CC1(C)OCC(C2OC3OC(C)(C)OC3C2NNC(=O)c2cc3cc(OCc4ccccc4)ccc3[nH]2)O1 (stereo not drawn) [Compound 71] |  |  |  | 
 |  |  | + |  | no dose-response was observed |  |  | CC(C)(C)OC(=O)N1CCN(c2cc(-c3ccc(Oc4ccccc4)cc3)n[nH]2)CC1 [Compound 30] |  |  |  | 
 |  |  | + |  | no dose-response was observed |  |  | CC1CCCCN1C(=O)NCCc1coc(-c2ccc(F)cc2)n1 (stereo not drawn) [Compound 32] |  |  |  | 
1090 | 1090 | 1090 | + |  |  |  | stabilization of PD-L1 | Cc1nc(C)c(C(=O)NNC(=O)Cc2ccccc2)cc1C(=O)NNC(=O)Cc1ccccc1 [Compound 84] |  |  |  | 

Second part, the compound before the results:

SMILES | IC50 (PD-1/PD-L1 interaction; [4]) [nM] | IC50 (PD-1/PD-L1 interaction; [5]) [nM] | IC50 (PD-1/PD-L1 interaction; [6]) [nM] | HTF assay (100 μM) (PD-1/PD-L1 interaction) | stability of compound [1] | dose-response effect in HTRF (PD-1/PD-L1 interaction) | interference with the fluorescence-dye in DSF (recombinant human PD-L1) | thermal shift / stabilization of PD-L1 (recombinant human PD-L1) | toxicity (cell viability, MTT) (A375 cells) | toxicity (cell viability, MTT) (MDA-MB-231 cells) | impact on PD-L1 accessibility / PD-1/PD-L1 interaction [2] | impact on PD-L1 accessibility / PD-1/PD-L1 interaction [3]
CN1CCN(S(=O)(=O)c2ccc(-c3ccc4c(Nc5ccc6nn[nH]c6c5)ccnc4c3)cc2)CC1 [Compound 29] | 4000 | 4000 | 4000 | + | stability issues |  |  |  |  |  |  | 
Cc1cc(C)nc(NS(=O)(=O)c2ccc(NC(=O)c3cccnc3Nc3cccc(Cl)c3)cc2)n1 [Compound 75] | 1550 | 1550 | 1550 | + |  |  |  | stabilization of PD-L1 | toxicity higher or similar to that obtained for BMS202 | toxicity higher or similar to that obtained for BMS202 |  | 
COc1nc(OCc2cccc(-c3ccccc3)c2C)ccc1CNCCNC(C)=O [BMS202, reference compound] |  |  |  |  |  |  |  |  | higher toxicity at the highest concentration | higher toxicity at the highest concentration | did not exhibit a significant impact | did not exhibit a significant impact
N#Cc1nc(CC(=O)/C=C/c2ccccc2)c(CC(=O)/C=C/c2ccccc2)nc1C#N [Compound 18] | 190 | 190 | 190 | + | stability issues |  |  |  |  |  |  | 
CCCCCCCCSc1nc2ccc(/N=C\c3ccccc3O)cc2s1 [Compound 42] | 57 | 57 | 57 | + |  |  |  | stabilization of PD-L1 |  |  |  | 
Cc1cc(SCC(=O)c2ccc3c(ccc4ccccc43)c2)cc(C)[o+]1.[Br-] [Compound 47] | 149 | 149 | 149 | + |  |  |  | stabilization of PD-L1 |  |  |  | 
COc1ccc(-c2nc(N)nc(-c3cc(C)ccc3OC)c2Cl)cc1 [Compound 5] | 2440 | 2440 | 2440 | + |  |  |  | stabilization of PD-L1 |  |  |  | 
CCN(CC)CCNc1nc(NCCN(CC)CC)c2nc(-c3ccccc3)c(-c3ccccc3)nc2n1 [Compound 1] | 186 | 186 | 186 | + |  |  | revealed to interfere |  | toxicity higher or similar to that obtained for BMS202 | toxicity higher or similar to that obtained for BMS202 |  | 
COc1ccc(-c2nc(N)nc(-c3cc(C)ccc3O)c2Cl)cc1 [Compound 45] | 596 | 596 | 596 | + |  |  |  |  |  |  |  | 
